Experimental data reported in ChEMBL document CHEMBL5356986, “Research status of indole-modified natural products” (RSC Med Chem, 2023).
Each block holds one molecule with its values, some of them ahead of it.

Legend:
Type in all cases: functional, cell-based
MDA-MB-231 = assay: Antiproliferative activity against human MDA-MB-231 cells assessed as cell growth inhibition
MCF7 [1] = assay: Antiproliferative activity against human MCF7 cells assessed as cell growth inhibition incubated for 6 days by SRB assay; settings: MCF7, 144 h
MDA-MB-453 = assay: Antiproliferative activity against human MDA-MB-453 cells assessed as reduction in cell growth after 72 hrs by MTT assay; settings: MDA-MB-453, 72 h
SK-BR-3 = assay: Antiproliferative activity against human SK-BR-3 cells incubated for 72 hrs by MTT assay; settings: SK-BR-3, 72 h
SMMC-7721 = assay: Antiproliferative activity against human SMMC-7721 cells assessed as reduction in cell growth by SRB assay
CAMA-1 = assay: Antiproliferative activity against human CAMA-1 cells assessed as cell growth inhibition
SGC-7901 [2] = assay: Antiproliferative activity against human SGC-7901 cells assessed as cell growth inhibition
MCF7 [3] = assay: Antiproliferative activity against human MCF7 cells assessed as inhibition of cell growth incubated for 24 hrs by MTT assay; settings: MCF7, 24 h
HeLa [4] = assay: Antiproliferative activity against human HeLa cells assessed as reduction in cell growth measured after 48 hrs by MTT assay
Hep 3B2 = assay: Cytotoxicity against human Hep3B cells assessed as inhibition of cell growth by MTT assay
Bel-7402 = assay: Cytotoxicity against human Bel-7402 cells measured after 72 hrs by MTT assay; settings: Bel-7402, 72 h
HeLa [5] = assay: Cytotoxicity against human HeLa cells assessed as reduction in cell viability
PC-3 = assay: Cytotoxicity against human PC-3 cells assessed as reduction in cell viability
LoVo = assay: Cytotoxicity against human LoVo cells incubated for 72 hrs by MTT assay
A549 = assay: Antiproliferative activity against human A549 cells assessed as cell growth inhibition measured after 72 hrs by MTT assay; settings: A549, 72 h
A2780 = assay: Antiproliferative activity against human A2780 cells assessed as inhibition of cell growth
MCF7 [6] = assay: Antiproliferative activity against human MCF7 cells assessed as cell growth inhibition measured after 72 hrs by MTT assay; settings: MCF7, 72 h
HepG2 = assay: Antiproliferative activity against human HepG2 cells assessed as inhibition of cell proliferation after 72 hrs by MTT assay; settings: HepG2, 72 h
[7] = Antiproliferative activity against human CaLo cells assessed as reduction in cell viability
C-33-A = assay: Antiproliferative activity against human C-33-A cells assessed as reduction in cell viability measured after 48 hrs by MTT assay
SiHa = assay: Antiproliferative activity against human SiHa cells assessed as inhibition of cell growth by MTT assay
SGC-7901 [8] = assay: Cytotoxicity against human SGC-7901 cells assessed as reduction in cell viability measured after 48 hrs by MTT colorimetric assay; settings: SGC-7901, 48 h
RD = assay: Antiproliferative activity against human RD cells assessed as cell growth inhibition measured after 72 hrs by MTT assay

SMILES: CC[C@@]1(O)C(=O)OCc2c1cc1n(c2=O)Cc2cc3ccccc3nc2-1 [CAMPTOTHECIN]
IC50 (MDA-MB-231): < 10 nM
IC50 (MCF7 [1]): < 10 nM
IC50 (MDA-MB-453): < 10 nM
IC50 (SK-BR-3): < 10 nM
IC50 (SMMC-7721): 3950 nM
IC50 (CAMA-1): 70 nM

IC50 (SGC-7901 [2]): 1100 nM
IC50 (MCF7 [3]): 1200 nM
IC50 (HeLa [4]): 900 nM
SMILES: O=C(c1cc2ccc(Cl)cc2n1Cc1cccc2ccccc12)N(CCO)[C@@H]1CC(=O)N2C[C@@H]3CCCN4CCC[C@@H]([C@H]34)[C@H]2C1

SMILES: O=C(/C=C(O)/C=C/c1c[nH]c2ccccc12)/C=C/c1c[nH]c2ccccc12
IC50 (Hep 3B2): 14000 nM

IC50 (A549): 22 nM
IC50 (A2780): 37 nM
IC50 (MCF7 [6]): 51 nM
SMILES: COc1cc(C2CCCCc3c2ccc2c3ccn2C)cc(OC)c1OC (stereo not drawn)
IC50 (Bel-7402): 39 nM
IC50 (HeLa [5]): 56 nM
IC50 (PC-3): 47 nM
IC50 (LoVo): 49 nM

SMILES: COc1cc(/C=N/NC(=O)c2cn(Cc3ccccc3)c3ccccc23)cc(OC)c1OC
IC50 (HepG2): 0.63 nM

SMILES: O=C1C(Cl)=C(NC(Cc2c[nH]c3ccccc23)C(=O)O)C(=O)c2ccccc21 (stereo not drawn)
IC50 [7]: 2690 nM
IC50 (C-33-A): 3 nM
IC50 (SiHa): 3200 nM

SMILES: CC(=O)O[C@H]1C(=O)[C@@]2(C)[C@H]([C@H](OC(=O)c3ccccc3)[C@]3(O)C[C@H](OC(=O)[C@H](O)[C@@H](NC(=O)c4ccccc4)c4ccccc4)C(C)=C1C3(C)C)[C@]1(OC(C)=O)CO[C@@H]1C[C@@H]2O [PACLITAXEL]
IC50 (SGC-7901 [8]): 14400 nM
IC50 (RD): > 10000 nM
